{"source": "patent US12391672B2", "about": "“Solid forms comprising (S)-4-(4-(4-(((2-(2,6-dioxopiperidin-3-yl)-1-oxoisoindolin-4-yl)oxy)methyl)benzyl)piperazin-1-yl)-3-fluorobenzonitrile and salts thereof, and compositions comprising and methods of using the same” (Celgene Corporation, priority 2019, dated 2025)", "format_in_all_cases": "physicochemical", "key": {"[1]": {"assay": "Solubility of polymorphic forms in physiologically relevant media and final pH", "source_text": "Solubility data of the several polymorphic forms of Compound 1 in physiologically relevant media and the final pH of these solutions are summarized in the following tables."}, "[2]": {"assay": "Dynamic vapor sorption / hygroscopicity", "details": "for hygroscopicity: DVS, class by mass gain at 85% r.h.; for DVS mass increase: relative humidity from about 5% to about 95%", "procedure": "Projekt Messtechnik (now ProUmid) SPS11-100n. The sample was placed on an aluminum holder on top of a microbalance and allowed to equilibrate at 50% r.h. before starting one of the following pre-defined humidity programs (1 cycle): • hold 2 h at 50% r.h., • decrease humidity −5% r.h. h^−1 for 10 h (i.e., from 50% r.h. to 0% r.h.), • hold 5 h at […]., • increase humidity +5% r.h. h^−1 for 19 h (i.e., from 0% r.h. to 95% r.h.), • hold 5 h at 95% r.h., • decrease humidity −5% r.h. h^−1 for 9 h (i.e., from 95% r.h. to 50% r.h.), • hold 2 h at 50% r.h. or • hold 2 h at 50% r.h., • increase humidity +5% r.h. h^−1 for 9 h (i.e., from 50% r.h. to 95% r.h.), • hold 5 h at 95% r.h., • decrease humidity −5% r.h. h^−1 for 19 h (i.e., from 95% r.h. to 0% r.h.), • hold 5 h at 0% r.h., • increase humidity +5% r.h. h^−1 for 10 h (i.e., from 0% r.h. to 50% r.h.), • hold 2 h at 50% r.h.\nThe hygroscopicity was classified based on the mass gain at 85% r.h. relative to the initial mass as follows: deliquescent (sufficient water adsorbed to form a liquid), very hygroscopic (mass increase of […]), hygroscopic (mass increase of <15% but ≥2%), slightly hygroscopic (mass increase of <2% but ≥0.2%), or non-hygroscopic (mass increase of <0.2%)."}, "[3]": {"assay": "Solid state stability under accelerated storage conditions", "procedure": "Form A was not isolated directly as a wet cake but formed only upon drying of Form E in polymorphism studies. […] Small quantities of Form A were generated by dissolving a crude Compound 1 in MEK at high temperature, followed by fast cooling to room temperature, filtration and drying. DSC and TGA data were obtained for samples of Form A and following storage for 1 week at 60° C. and 60° C./75% RH. […] TGA analysis confirmed that this broad endotherm was most likely due to moisture uptake under the accelerated storage conditions. Most of the weight loss of 0.82% in this sample occurred in a single step at less than 75° C. By contrast, weigh loss was a two-step process at the initial time point. […] The residual solvent initially present in the sample was lost upon storage of the sample at 60° C. (0.13% weight loss between 25 to 150° C.).\nForm B could be obtained from a process involving methyl acetate. […] HPLC traces were taken of the samples of Form B and following storage for 2 week at 60° C. and 60° C./75% RH. […] Several small degradation products were seen to grow especially in the sample stored at 60° C. Chiral instability was also observed in the sample stored at 60° C./75% RH.\nPhysical stability: Visually, all samples of Form K were white colored powder with no apparent change in color in the samples stored under accelerated conditions (40° C., 40° C./75% RH, 60° C., 60° C./75% RH and sample stored in light chamber in clear vials exposed to light and covered in aluminum foil) for 14 d relative to the sample stored refrigerated and under ambient conditions.\nSolid state chemical stability: HPLC analysis were performed on Form K samples stored under the accelerated stability conditions. […] Based on the HPLC analysis data, there is a measurable but small change in the chemical stability of Form K under the accelerated conditions of temperature, humidity and exposure to light over the 14 d period.\nSolid state chiral stability: Chiral stability of Form K samples stored under accelerated stability conditions was tested. There was ˜2.9% of the R-enantiomer (97.1 area % of the active S-isomer) in the initial sample. […]\nThe chiral purity (area % of S-isomer) remained […] under the accelerated stability conditions."}, "[4]": {"assay": "Mechanical stressing (grinding, compression)", "details": "ground with a mortar and pestle for 2 min; listed as Form A", "procedure": "Mechanical stressing experiment: the following table describes three experiments involving mechanical stressing of Form A and/or Form B of free base Compound 1 by grinding with a mortar and pestle.\nShear Sensitivity: Form K was compressed under 2000 psi for 1 minute and analyzed by XRPD."}, "[5]": {"assay": "Competitive slurry and slurry stability experiments", "details": "water, prolonged stirring", "procedure": "Form B was obtained at room temperature while form C was obtained at 45° C. in acetone alone.\nThe HBr salt was largely insoluble in various buffers when 1 mg/mL slurries were prepared and the mother liquor concentration determined (by HPLC): <0.05 mg/mL in all buffers tested."}, "[6]": {"assay": "Thermal treatment / racemization on heating", "details": "N2 flow, 200° C. held for several minutes, cooled quickly", "procedure": "Thermal treatment of solid forms: the following table summarizes two experiments carried out using solvent-free thermal treatment of forms of Compound 1. The goal of these experiments was to determine whether the endotherm at 225° C. observed in many DSC experiments corresponded to the melting of the racemate of Compound 1 or whether it was a polymorphic form of Compound 1. Two experiments involved generation of different solid forms of Compound 1, the amorphous form and Form E. The resulting products were subsequently heated to temperatures where exothermic events had been observed in DSC thermograms. Both experiments confirmed that the racemate was generated by heating.\nRacemization of Compound 1 during the DSC analysis was confirmed by heating the samples to various temperatures and analyzing these samples by a chiral HPLC method as well as by comparison of the melting point with a pure sample of the racemate of Compound 1. Upon heating the sample to 160° C., the chiral purity was essentially unchanged (96.1 area % at 160° C. vs. 97.1% initial). This supports the interpretation of the sharp endotherm seen in the DSC thermogram at about 152.6° C. as the melt of the enantiomer. Between 160-218° C. a gradual conversion of the enantiomer to the racemate occurs along with the recrystallization of the racemate. This explains the unsteady baseline over this temperature range and the small broad endotherm observed at about 197.1° C. […] This melting point matches the peak melting point (about 225.6° C.) of the pure racemate of Compound 1."}}}
{"smiles": "N#Cc1ccc(N2CCN(Cc3ccc(COc4cccc5c4CN([C@H]4CCC(=O)NC4=O)C5=O)cc3)CC2)c(F)c1", "note": "[Form A of a free base of Compound 1]", "values": [{"measurement": "Solubility", "setting": "[1]; FeSSiF, listed as Form A", "value": 86, "unit": "µg/mL"}, {"measurement": "Solubility", "setting": "[1]; SGF with pepsin, listed as Form A", "value": 429, "unit": "µg/mL"}, {"measurement": "Solubility", "setting": "[1]; pH 1 buffer HC1/NaC1, listed as Form A", "value": 88, "unit": "µg/mL"}, {"measurement": "Solubility", "setting": "[1]; pH 3 buffer (phosphate), listed as Form A", "value": 280, "unit": "µg/mL"}, {"measurement": "Solubility", "setting": "[1]; pH 4 buffer (acetate), listed as Form A", "value": 159, "unit": "µg/mL"}, {"measurement": "Solubility", "setting": "[1]; pH 5 buffer (acetate), listed as Form A", "value": 8, "unit": "µg/mL"}, {"measurement": "Final pH", "setting": "[1]; solubility sample in FaSSIF, listed as Form A", "value": 6.44}, {"measurement": "Final pH", "setting": "[1]; solubility sample in FeSSiF, listed as Form A", "value": 5.05}, {"measurement": "Final pH", "setting": "[1]; solubility sample in SGF with pepsin, listed as Form A", "value": 1.34}, {"measurement": "Final pH", "setting": "[1]; solubility sample in Water, listed as Form A", "value": 6.77}, {"measurement": "Final pH", "setting": "[1]; solubility sample in pH 1 buffer HC1/NaC1, listed as Form A", "value": 1.14}, {"measurement": "Final pH", "setting": "[1]; solubility sample in pH 3 buffer (phosphate), listed as Form A", "value": 3.70}, {"measurement": "Final pH", "setting": "[1]; solubility sample in pH 4 buffer (acetate), listed as Form A", "value": 4.11}, {"measurement": "Final pH", "setting": "[1]; solubility sample in pH 5 buffer (acetate), listed as Form A", "value": 5.03}, {"measurement": "hygroscopicity", "setting": "[2]; listed as Form A", "value": "slightly hygroscopic (slightly hygroscopic (mass increase of <2% but ≥0.2%))"}, {"measurement": "DVS mass increase", "setting": "[2]; listed as Form A", "value": "about 2.4%"}, {"measurement": "DSC trace after storage", "setting": "[3]; 1 week at 60° C.", "value": "quite similar to the initial condition"}, {"measurement": "physical form after storage (DSC, TGA)", "setting": "[3]; 1 week at 60° C./75% RH", "value": "changes in physical form were observed"}, {"measurement": "PXRD result after mechanical treatment", "setting": "[4]", "value": "no change in polymorphic form;"}]}
{"smiles": "N#Cc1ccc(N2CCN(Cc3ccc(COc4cccc5c4CN([C@H]4CCC(=O)NC4=O)C5=O)cc3)CC2)c(F)c1", "note": "[Form C of a free base of Compound 1]", "values": [{"measurement": "Solubility", "setting": "[1]; FaSSIF", "value": 1, "unit": "µg/mL"}, {"measurement": "Solubility", "setting": "[1]; FeSSiF, listed as Form C", "value": 31, "unit": "µg/mL"}, {"measurement": "Solubility", "setting": "[1]; SGF with pepsin, listed as Form C", "value": 427, "unit": "µg/mL"}, {"measurement": "Solubility", "setting": "[1]; Water", "value": "<LOQ"}, {"measurement": "Solubility", "setting": "[1]; pH 1 buffer HC1/NaC1, listed as Form C", "value": 108, "unit": "µg/mL"}, {"measurement": "Solubility", "setting": "[1]; pH 3 buffer (phosphate), listed as Form C", "value": 277, "unit": "µg/mL"}, {"measurement": "Solubility", "setting": "[1]; pH 4 buffer (acetate), listed as Form C", "value": 65, "unit": "µg/mL"}, {"measurement": "Solubility", "setting": "[1]; pH 5 buffer (acetate), listed as Form C", "value": 3, "unit": "µg/mL"}, {"measurement": "Final pH", "setting": "[1]; solubility sample in FaSSIF, listed as Form C", "value": 6.44}, {"measurement": "Final pH", "setting": "[1]; solubility sample in FeSSiF, listed as Form C", "value": 5.05}, {"measurement": "Final pH", "setting": "[1]; solubility sample in SGF with pepsin, listed as Form C", "value": 1.29}, {"measurement": "Final pH", "setting": "[1]; solubility sample in Water, listed as Form C", "value": 6.86}, {"measurement": "Final pH", "setting": "[1]; solubility sample in pH 1 buffer HC1/NaC1, listed as Form C", "value": 1.07}, {"measurement": "Final pH", "setting": "[1]; solubility sample in pH 3 buffer (phosphate), listed as Form C", "value": 3.31}, {"measurement": "Final pH", "setting": "[1]; solubility sample in pH 4 buffer (acetate), listed as Form C", "value": 4.14}, {"measurement": "Final pH", "setting": "[1]; solubility sample in pH 5 buffer (acetate), listed as Form C", "value": 5.11}, {"measurement": "hygroscopicity", "setting": "[2]; listed as Form C", "value": "hygroscopic (hygroscopic (mass increase of <15% but ≥2%))"}, {"measurement": "DVS mass increase", "setting": "[2]; listed as Form C", "value": "about 8.3%"}, {"measurement": "physical and chemical stability", "setting": "[3]; accelerated stability conditions", "value": "physically and chemically stable"}, {"measurement": "competitive slurry of Form C and Form K", "setting": "[5]", "value": "gradual conversion of Form C to Form K"}]}
{"smiles": "N#Cc1ccc(N2CCN(Cc3ccc(COc4cccc5c4CN([C@H]4CCC(=O)NC4=O)C5=O)cc3)CC2)c(F)c1", "note": "[Form E of a free base of Compound 1]", "values": [{"measurement": "solid form after DVS cycle", "setting": "[2]; after the DVS humidity cycle, listed as Form E", "value": "primarily amorphous material"}, {"measurement": "PXRD result after thermal treatment", "setting": "[6]", "value": "racemate"}]}
